Measured values taken from US5380740A, “Anti-inflammatory compounds, compositions and method of use thereof” (G. D. Searle & Co., priority 1993, dated 1995).
pIC50: −log10 of the molar value.

Tests used:
Human neutrophils [1] = assay: Human Neutrophil Degranulation Assay (LTB4-induced myeloperoxidase release); type: cell-based; settings: LTB4 5×10^-8 M; for Relative Potency, Degranulation: potency relative to compound 1 defined as 1.0
Procedure: Neutrophils were purified from venous blood of normal human donors using standard techniques of dextran sedimentation, centrifugation on Ficoll-paque® (Pharmacia) or Histopaque® sterile solution (Sigma) and hypotonic lysis of erythrocytes (Boyum, A., Isolation of Leukocytes from Human Blood: Further Observations. Stand, J. Lab. Clin. Invest., 21 (Suppl. 97): 31, 1968). The purity of isolated neutrophils was >95%.
Neutrophil degranulation was determined by measuring the release of myeloperoxidase activity into the incubation medium. Neutrophils (3×10^6) in 1 ml HBSS solution were preincubated with cytochalasin B(5 μg) at 37° C. for 5 minutes, followed by preincubation with test compounds for 7 minutes. Neutrophils were then incubated for 2 to 20 minutes with LTB4 (5×10^-8 M) to induce degranulation. Following incubation, samples were centrifuged and myeloperoxidase was extracted from the cell pellets by sonication in phosphate buffer containing 0.4% Triton X-100. Triton X-100 was also added to the supernatants to a concentration of 0.4%. The supernatants and the pellet--extracts were then assayed spectrophotometrically for myeloperoxidase activity by determining the rate of decomposition of H2 O2 with o-dianisidine as hydrogen donor as described by Renlund, et al. (Renlund, D. G., MacFarlane, J. L., Christensen, R. D., Lynch, R. E., and Rothstein, G., A Quantitative and sensitive Method for Measurement of Myeloperoxidase, Clinical Research 28:75A, 1980). Myeloperoxidase activity released into the supernatant was expressed as the percent of the average total activity (pellet plus supernatant).

Human neutrophils [2] = assay: Modified Boyden Chamber Chemotaxis (LTB4-induced); type: cell-based; settings: 3×10^-8 M LTB4; for Relative Potency, Chemotaxis: potency relative to compound 1 defined as 1.0
Procedure: Human neutrophils were isolated from citrated peripheral blood using standard techniques of dextran sedimentation, followed by centrifugation on Histopaque® sterile solution (Sigma) or Ficoll-paque® (Pharmacia) and hypotonic lysis of erythrocytes. A final cell suspension of 3.4×10^6 neutrophils/ml of HEPES-buffered Hanks balanced salt solution (HBSS, pH 7.3) was added to the upper well (0.8 ml) of a modified Boyden chamber (blind well). […] Percent inhibition was calculated from cell counts corrected for random migration by subtracting the mean of the HBSS control.

LTB4 receptor = biological target: T1, LTB4 receptor (Homo sapiens, UniProt Q15722); assay: LTB4 Receptor Binding Assay; settings: potency relative to compound 1 defined as 1.0; (3H) LTB4 0.6×10^-9 M, human neutrophils
T1 construct: endogenous in cells; host or cells: neutrophils purified from venous blood of normal human donors (purity >95%)
Procedure: Neutrophils (4-6×10^6) in 1 ml Hanks' balanced salt solution containing 10 mM HEPES buffer (HBSS), pH 7.4 and 30 μM nordihydroguaiaretic acid were incubated with 0.6×10^-9 M (3H) LTB4 in the presence or absence of test compounds. The incubation was carried out at 0° C. for 45 minutes and terminated by adding 5 ml of ice-cold HBSS followed by rapid filtration of incubation mixture under vacuum through GF/C glass fiber filters. The filters were further washed with 10 ml HBSS and radioactivity was determined. Specific binding was defined as the difference between total binding and nonspecific binding which was not displaced by 10^-7 M unlabeled LTB4. All data refer to specific binding.

T1 sequence (Q15722 whole entry): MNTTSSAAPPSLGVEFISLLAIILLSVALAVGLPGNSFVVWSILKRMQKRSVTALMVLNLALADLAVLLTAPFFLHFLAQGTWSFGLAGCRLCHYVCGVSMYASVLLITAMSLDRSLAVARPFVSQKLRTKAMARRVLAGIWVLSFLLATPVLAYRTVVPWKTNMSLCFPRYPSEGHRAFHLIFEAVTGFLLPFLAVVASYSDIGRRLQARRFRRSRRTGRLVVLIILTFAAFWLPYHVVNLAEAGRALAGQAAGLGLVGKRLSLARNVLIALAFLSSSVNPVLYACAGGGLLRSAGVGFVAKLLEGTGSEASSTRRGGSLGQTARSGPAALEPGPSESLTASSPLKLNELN

| pIC50 (Human neutrophils [1]; Homo sapiens, Neutrophil) | pIC50 (Human neutrophils [2]; Homo sapiens, Neutrophil) | Relative Potency, LTB4 Receptor Binding (LTB4 receptor) | SMILES | Relative Potency, Degranulation (Human neutrophils [1]) | Relative Potency, Chemotaxis (Human neutrophils [2]) |
| --- | --- | --- | --- | --- | --- |
| 5.82 | 5.74 |  | CCCc1c(OCCCOc2ccc(C(C)=O)c(OC)c2CCC)ccc2c1OC(C(=O)O)CC2 (centres unmarked) [Compound 1, 7-[3,(4-acetyl-3-methoxy-2-propylphenoxy)propoxy]-3,4-dihydro-8-propyl-2H-1-benzopyran-2-carboxylic acid, reference compound] |  |  |
|  |  | 2 | CCCc1c(OCCCOc2ccc(C(C)=O)c(OC)c2CC2CC2)ccc2c1OC(c1nnn[nH]1)CC2 (centres unmarked) | 75 | 22.5 |
|  |  | 0.8 | C=CCc1c(OCCCOc2ccc3c(c2CCC)OC(c2nnn[nH]2)CC3)ccc(C(C)=O)c1OC (centres unmarked) | 38 | 9 |
